In patent publication US20230158259A1, “PRODUCTS OF MANUFACTURE AND METHODS FOR TREATING, AMELIORATING OR PREVENTING MICROBIAL INFECTIONS” (TOPELIA AUST LIMITED, priority 2020, published 2023):

How the values were obtained:
[1] = test system: COVID-19 coronavirus; format: in vivo, human; conditions: group of elderly cruise travelers
[2] = test system: coronavirus COVID-19; format: in vivo; conditions: after 4 days of osteltamivir alone, started at time of contact

Row | Compound | contraction of COVID-19 coronavirus [1] | test for the virus upon arrival home after the cruise [1] | blood result for COVID-19 virus [2]
1 | CCN(CC)CCCC(C)Nc1ccnc2cc(Cl)ccc12 (stereo not drawn) [chloroquine] | None contract COVID-19 coronavirus | negative | 
2 | CCOC(=O)C1=C[C@@H](OC(CC)CC)[C@H](NC(C)=O)[C@@H](N)C1 [osteltamivir, oseltamivir] |  |  | positive
